# Measured values reported in patent US9789096B2, “Methods and compositions for selective and targeted cancer therapy” (Board of Regents of the University of Texas System, priority 2013, dated 2017).
# Columns and labels:
# [1] = target: T1, HMOX2 (Homo sapiens, UniProt P30519); experiment: HMOX2 activity in H2122 cell homogenate (bilirubin production); assay type: biochemical
# T1 construct: endogenous in cells; host or cells: H2122 cells (homogenate / lysate)
# Description: FIG. 7N. Oxalamide inhibits the activity of HMOX2 in vitro. H2122 cell homogenate was incubated with varying concentrations of SW208108 in the presence of excess NADPH, NADPH cytochrome reductase, and biliverdin reductase. The samples were extracted with chloroform and absorbance was measured at 450 nm refecting bilirubin production.
# (§1) However, when HO2 was knocked out from H2122 cells using Crisper technology (FIG. 7O), no toxicity was observed, and SW208108 and related compounds retained toxicity towards H2122 cells (FIG. 7P). We conclude that HO2 is not required for cell survival or for the cytotoxicity of the selective toxins.
# [2] = target: T1, HMOX2; experiment: Immunoprecipitation of SW208108-bound protein with anti-HMOX2; assay type: binding
# Description: FIG. 7M. HMOX2 binds to SW208108 and is partially competed by an active competitor. Lysates collected from H2122 cells treated with SW208108 with or without competitor were immunoprecipitated with either IgG or anti-HMOX2 and then “clicked” to a dye-azide (as described in FIG. 7A). HMOX2 binds to SW208108 and binding is partially diminished in the presence of a competitor.
# as §1
# [3] = target: T2, SCD1 (Homo sapiens, UniProt O00767); experiment: Immunoprecipitation of SW208108-bound protein with anti-SCD1; assay type: binding; set-up: The fluorescent bands confirm that p30 and p37 represent isoforms of SCD1; endogenous in cells; host or cells: H2122 cells
# T2 sequence (O00767 1-359): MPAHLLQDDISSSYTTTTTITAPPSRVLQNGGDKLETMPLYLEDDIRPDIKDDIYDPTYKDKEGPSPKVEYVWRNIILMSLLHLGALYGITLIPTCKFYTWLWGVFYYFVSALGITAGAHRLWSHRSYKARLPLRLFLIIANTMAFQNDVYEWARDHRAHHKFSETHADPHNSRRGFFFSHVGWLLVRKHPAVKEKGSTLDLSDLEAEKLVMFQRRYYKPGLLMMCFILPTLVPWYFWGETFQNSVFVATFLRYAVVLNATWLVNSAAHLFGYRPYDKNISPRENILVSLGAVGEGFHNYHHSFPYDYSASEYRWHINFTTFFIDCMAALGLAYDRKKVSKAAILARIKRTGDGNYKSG
# Description: FIG. 7L. Antibodies against SCD1 (Pierce) immunoprecipitate SW208108-bound protein. Samples were prepared as in FIG. 7A, and immunoprecipitated with either anti-SCD1 or IgG. The fluorescent bands confirm that p30 and p37 represent isoforms of SCD1.
# SCD1 is the functional target of the oxalamides, benzothiazoles, chromones, and related derivatives. Covalent binding of SW208108 to SCD1 was confirmed by incubating cells in the presence of SW208108, lysing them, immunoprecipitating with antibodies to SCD1, and then clicking drug-bound proteins to a dye.
# [4] = target: T2, SCD1; experiment: Covalent adduct formation in 293t cells transfected with SCD1 or CYP4F11; assay type: cell-based; set-up: expressed in transfected cells; host or cells: 293t cells
# Description: (§2) FIGS. 10A-10F. Sensitive cells express high levels of CYP4 family members. FIG. 10A. relative expression levels of mRNA for a panel of cytochrome P450 enzymes from the cancer cell line encyclopedia (CCLE, http://www.broadinstitute.org/ccle) showing CYP4F11 in particular is highly expressed in 4 NSCLC lines that are sensitive to SCD1 inhibition. FIG. 10B. Western blot showing that CYP4F11 protein is expressed in all sensitive cell lines but not in the majority of insensitive cell lines. FIG. 10C. […] FIG. 10D. Cells were incubated with either a methoxy-containing oxalamide, which represents the pro-drug form, or the hydroxy containing oxalamide, which represents the active form of the drug. […] FIG. 10E. 293t cells were transfected with mammalian expression plasmids containing SCD1 or CYP4F11 as indicated. Cells were treated with either SW208108 or its demethylated congener, SW211666, and conjugated with a fluorescent dye as described in FIG. 7. Cells containing CYP4F11 form covalent adducts with both the pro-drug (methoxy) and drug form (demethylated, i.e. OH). […] FIG. 10F. Shown are the results of a tritium release assay in which tritiated water is produced from tritiated stearoyl CoA by the action of SCD1. […] By contrast, SW211666 but not SW208108 inhibits SCD1 in mouse preputial gland, which lacks CYP4F11 (bottom). […]
# [5] = target: T3, SCD1 (Mus musculus, UniProt P13516); experiment: Tritium release assay of SCD1 activity, mouse liver; assay type: biochemical; conditions: liver expresses CYP4F11
# T3 construct: tissue derived from mouse liver and preputial gland was independently exposed; from tissue; host or cells: mouse liver
# Description: as §2
# T1 sequence (P30519 whole entry): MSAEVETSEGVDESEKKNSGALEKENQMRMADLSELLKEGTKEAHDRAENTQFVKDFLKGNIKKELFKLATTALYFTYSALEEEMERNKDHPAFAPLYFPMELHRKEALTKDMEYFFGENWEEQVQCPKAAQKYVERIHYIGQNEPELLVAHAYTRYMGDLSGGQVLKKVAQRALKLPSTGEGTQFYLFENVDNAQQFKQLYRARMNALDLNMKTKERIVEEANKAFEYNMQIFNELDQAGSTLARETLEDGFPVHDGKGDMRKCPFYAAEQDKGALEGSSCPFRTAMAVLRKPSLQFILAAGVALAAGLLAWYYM
# T3 sequence (P13516 whole entry): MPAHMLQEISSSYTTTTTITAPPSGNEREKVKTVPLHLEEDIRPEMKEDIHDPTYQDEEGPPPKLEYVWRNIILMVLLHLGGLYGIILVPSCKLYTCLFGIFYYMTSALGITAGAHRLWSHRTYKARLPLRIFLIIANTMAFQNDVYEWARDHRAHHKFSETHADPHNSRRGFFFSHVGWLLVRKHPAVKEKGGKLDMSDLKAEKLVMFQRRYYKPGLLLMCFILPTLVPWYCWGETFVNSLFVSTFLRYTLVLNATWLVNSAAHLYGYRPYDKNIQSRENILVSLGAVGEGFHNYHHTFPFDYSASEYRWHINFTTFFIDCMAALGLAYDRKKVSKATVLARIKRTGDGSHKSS
smiles,measurement,setting,value
C#CCOc1ccc(C(=O)c2ccc(NC(=O)C(=O)NCCc3ccc(OC)cc3)cc2)cc1 [SW208108],activity of HMOX2 in vitro,[1],inhibits
same,covalent binding to HO2 (HMOX2),[2],covalently bound
same,covalent binding to SCD1 (immunoprecipitation),[3],confirmed
same,covalent modification of SCD1 in 293t cells in the absence of CYP4F11,[4]; SCD1 expressed alone,unable to covalently modify SCD1
same,covalent modification of SCD1 in 293t cells expressing SCD1 and CYP4F11,[4]; with or without HET0016,covalently modify SCD1
same,inhibition of SCD1 activity in mouse liver tissue,[5],only inhibited SCD1 activity in the liver
